Experiments:
bedstraw = assay: Test B pre/postemergence bedstraw; type: in vivo, Galium aparine
Procedure, shortened: (§1)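 Test chemicals in a non-phytotoxic solvent mixture with surfactant were sprayed preemergence onto planted seeds and postemergence onto plants 2 to 18 cm tall (1- to 4-leaf stage). After twelve to sixteen days in a greenhouse, injury was visually rated against untreated controls from 0 (no effect) to 10 (complete control).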

blackgrass = assay: Test B pre/postemergence blackgrass; type: in vivo, Alopecurus myosuroides
Procedure, shortened: as §1

surinam grass = assay: Test B pre/postemergence surinam grass; type: in vivo, Brachiaria decumbens
Procedure, shortened: as §1

cocklebur = assay: Test B pre/postemergence cocklebur; type: in vivo, Xanthium strumarium
Procedure, shortened: as §1

crabgrass = assay: Test B pre/postemergence crabgrass; type: in vivo, Digitaria sanguinalis
Procedure, shortened: as §1

giant foxtail = assay: Test B pre/postemergence giant foxtail; type: in vivo, Setaria faberii
Procedure, shortened: as §1

morningglory = assay: Test B pre/postemergence morningglory; type: in vivo, Ipomoea hederacea
Procedure, shortened: as §1

pigweed = assay: Test B pre/postemergence pigweed; type: in vivo, Amaranthus retroflexus
Procedure, shortened: as §1

sugar beet = assay: Test B pre/postemergence sugar beet; type: in vivo, Beta vulgaris
Procedure, shortened: as §1

velvetleaf = assay: Test B pre/postemergence velvetleaf; type: in vivo, Abutilon theophrasti
Procedure, shortened: as §1

wheat = assay: Test B pre/postemergence wheat; type: in vivo, Triticum aestivum
Procedure, shortened: as §1

wild oat = assay: Test B pre/postemergence wild oat; type: in vivo, Avena fatua
Procedure, shortened: as §1

purple nutsedge = assay: Test B pre/postemergence purple nutsedge; type: in vivo, Cyperus rotundus
Procedure, shortened: as §1

rice = assay: Test B flood test rice; type: in vivo, Oryza sativa
Procedure, shortened: (§2)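 Flood test on plants grown to the 2-leaf stage; treated plants kept in greenhouse twelve to sixteen days, then visually rated against controls on a 0 (no effect) to 10 (complete control) scale.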

duck salad = assay: Test B flood test duck salad; type: in vivo, Heteranthera limosa
Procedure, shortened: as §2

bamyardgrass = assay: Test B flood test barnyardgrass; type: in vivo, Echinochloa crus-galli
Procedure, shortened: as §2

[1] = Preemergence, Rate 62 g/ha, scale of 0 to 10 where 0 is no effect and 10 is complete control
[2] = Preemergence, Rate 250 g/ha, scale of 0 to 10 where 0 is no effect and 10 is complete control
[3] = Preemergence, Rate 500 g/ha, scale of 0 to 10 where 0 is no effect and 10 is complete control
[4] = Rate 62 g/ha, Postemergence, scale of 0 to 10 where 0 is no effect and 10 is complete control
[5] = Rate 125 g/ha, Postemergence, scale 0 to 10
[6] = Rate 125 g/ha, Preemergence, scale of 0 to 10 where 0 is no effect and 10 is complete control
[7] = Rate 500 g/ha, Postemergence, scale 0 to 10, 0 no effect, 10 complete control
[8] = Rate 62 g/ha, headed Pre-emergence (flood test species), scale 0 to 10 (0 no effect, 10 complete control)
[9] = Rate 125 g/ha, Pre-emergence, flood test species, scale 0 to 10 where 0 is no effect and 10 is complete control
[10] = Rate 250 g/ha, Pre-emergence, flood-test species, scale 0 to 10, 0 is no effect, 10 is complete control
[11] = Rate 500 g/ha, Pre-emergence, flood test species, scale 0 to 10 (0 no effect, 10 complete control)

Which results are given for Cc1nc(C)c(Cn2c(=O)on(C(=O)N(c3ccc(F)cc3F)C(C)C)c2=O)s1 [Compound 233]?
Bedstraw plant response rating (bedstraw; [1]): 0; Bedstraw plant response rating (bedstraw; [2]): 0; Plant response rating, Bedstraw (bedstraw; [3]): 0; Bedstraw plant response rating (bedstraw; [4]): 0; Bedstraw plant response rating (bedstraw; [5]): 0; Bedstraw plant response rating (bedstraw; [6]): 0; Plant response rating (0 to 10; 0 is no effect, 10 is complete control), Bedstraw (bedstraw; Rate 250 g/ha, Postemergence): 3; Bedstraw plant response rating (bedstraw; [7]): 5; Blackgrass plant response rating (blackgrass; [1]): 2; Blackgrass plant response rating (blackgrass; [2]): 8; Plant response rating, Blackgrass (blackgrass; [3]): 9; Blackgrass plant response rating (blackgrass; [4]): 0; Blackgrass plant response rating (blackgrass; [5]): 0; Blackgrass plant response rating (blackgrass; [6]): 2; Plant response rating (0 to 10; 0 is no effect, 10 is complete control), Blackgrass (blackgrass; Rate 250 g/ha, Postemergence): 2; Blackgrass plant response rating (blackgrass; [7]): 5; B. signalgrass plant response rating (surinam grass; [1]): 0; B. signalgrass plant response rating (surinam grass; Preemergence, Rate 250 g/ha, scale 0 to 10, 0 is no effect, 10 is complete control): 4; Plant response rating, B. signalgrass (surinam grass; [3]): 4; B. signalgrass plant response rating (surinam grass; [4]): 0; B. signalgrass plant response rating (surinam grass; Rate 125 g/ha, Postemergence, scale 0 (no effect) to 10 (complete control)): 0; B. signalgrass plant response rating (surinam grass; [6]): 2; Plant response rating (0 to 10; 0 is no effect, 10 is complete control), B. signalgrass (surinam grass; Rate 250 g/ha, Postemergence): 0; B. signalgrass plant response rating (surinam grass; [7]): 1; Cocklebur plant response rating (cocklebur; [1]): 0; Cocklebur plant response rating (cocklebur; [2]): 0; Plant response rating, Cocklebur (cocklebur; [3]): 0; Cocklebur plant response rating (cocklebur; [4]): 0; Cocklebur plant response rating (cocklebur; [5]): 2; Cocklebur plant response rating (cocklebur; [6]): 0; Plant response rating (0 to 10; 0 is no effect, 10 is complete control), Cocklebur (cocklebur; Rate 250 g/ha, Postemergence): 2; Cocklebur plant response rating (cocklebur; [7]): 2; Crabgrass plant response rating (crabgrass; [1]): 5; Crabgrass plant response rating (crabgrass; [2]): 9; Plant response rating, Crabgrass (crabgrass; [3]): 10; Crabgrass plant response rating (crabgrass; [4]): 0; Crabgrass plant response rating (crabgrass; [5]): 0; Crabgrass plant response rating (crabgrass; [6]): 6; Plant response rating (0 to 10; 0 is no effect, 10 is complete control), Crabgrass (crabgrass; Rate 250 g/ha, Postemergence): 1; Crabgrass plant response rating (crabgrass; [7]): 6; Giant foxtail plant response rating (giant foxtail; [1]): 7; Giant foxtail plant response rating (giant foxtail; [2]): 9; Plant response rating, Giant foxtail (giant foxtail; [3]): 10; Giant foxtail plant response rating (giant foxtail; [4]): 0; Giant foxtail plant response rating (giant foxtail; [5]): 0; Giant foxtail plant response rating (giant foxtail; [6]): 7; Plant response rating (0 to 10; 0 is no effect, 10 is complete control), Giant foxtail (giant foxtail; Rate 250 g/ha, Postemergence): 3; Giant foxtail plant response rating (giant foxtail; [7]): 6; Morningglory plant response rating (morningglory; [1]): 0; Morningglory plant response rating (morningglory; [2]): 0; Plant response rating, Morningglory (morningglory; [3]): 2; Morningglory plant response rating (morningglory; [4]): 3; Morningglory plant response rating (morningglory; [5]): 3; Morningglory plant response rating (morningglory; [6]): 0; Plant response rating (0 to 10; 0 is no effect, 10 is complete control), Morningglory (morningglory; Rate 250 g/ha, Postemergence): 3; Morningglory plant response rating (morningglory; [7]): 8; Redroot pigweed plant response rating (pigweed; [1]): 3; Redroot pigweed plant response rating (pigweed; [2]): 7; Plant response rating, Redroot pigweed (pigweed; [3]): 8; Redroot pigweed plant response rating (pigweed; [4]): 0; Redroot pigweed plant response rating (pigweed; [5]): 0; Redroot pigweed plant response rating (pigweed; [6]): 6; Plant response rating (0 to 10; 0 is no effect, 10 is complete control), Redroot pigweed (pigweed; Rate 250 g/ha, Postemergence): 2; Redroot pigweed plant response rating (pigweed; [7]): 4; Sugarbeets plant response rating (sugar beet; [1]): 0; Sugarbeets plant response rating (sugar beet; [2]): 4; Plant response rating, Sugarbeets (sugar beet; [3]): 8; Sugarbeets plant response rating (sugar beet; [4]): 0; Sugarbeets plant response rating (sugar beet; [5]): 0; Sugarbeets plant response rating (sugar beet; [6]): 0; Plant response rating (0 to 10; 0 is no effect, 10 is complete control), Sugarbeets (sugar beet; Rate 250 g/ha, Postemergence): 0; Sugarbeets plant response rating (sugar beet; [7]): 4; Velvetleaf plant response rating (velvetleaf; [1]): 0; Velvetleaf plant response rating (velvetleaf; [2]): 2; Plant response rating, Velvetleaf (velvetleaf; [3]): 7; Velvetleaf plant response rating (velvetleaf; [4]): 2; Velvetleaf plant response rating (velvetleaf; [5]): 2; Velvetleaf plant response rating (velvetleaf; [6]): 0; Plant response rating (0 to 10; 0 is no effect, 10 is complete control), Velvetleaf (velvetleaf; Rate 250 g/ha, Postemergence): 3; Velvetleaf plant response rating (velvetleaf; [7]): 3; Wheat plant response rating (wheat; [1]): 0; Wheat plant response rating (wheat; [2]): 0; Plant response rating, Wheat (wheat; [3]): 0; Wheat plant response rating (wheat; [4]): 0; Wheat plant response rating (wheat; [5]): 0; Wheat plant response rating (wheat; [6]): 0; Plant response rating (0 to 10; 0 is no effect, 10 is complete control), Wheat (wheat; Rate 250 g/ha, Postemergence): 0; Wheat plant response rating (wheat; [7]): 0; Wild oats plant response rating (wild oat; [1]): 0; Wild oats plant response rating (wild oat; [2]): 2; Plant response rating, Wild oats (wild oat; [3]): 6; Wild oats plant response rating (wild oat; [4]): 0; Wild oats plant response rating (wild oat; [5]): 0; Wild oats plant response rating (wild oat; [6]): 1; Plant response rating (0 to 10; 0 is no effect, 10 is complete control), Wild oats (wild oat; Rate 250 g/ha, Postemergence): 2; Wild oats plant response rating (wild oat; [7]): 2; Nutsedge plant response rating (purple nutsedge; [1]): 0; Nutsedge plant response rating (purple nutsedge; [2]): 0; Nutsedge plant response rating (purple nutsedge; [4]): 0; Nutsedge plant response rating (purple nutsedge; [5]): 0; Plant response rating (0 to 10; 0 is no effect, 10 is complete control), Nutsedge (purple nutsedge; Rate 250 g/ha, Postemergence): 0; Nutsedge plant response rating (purple nutsedge; [7]): 0; Rice plant response rating (rice; [8]): 0; Rice plant response rating (rice; [9]): 0; Rice plant response rating (rice; [10]): 0; Rice plant response rating (rice; [11]): 0; Ducksalad plant response rating (duck salad; [8]): 0; Ducksalad plant response rating (duck salad; [9]): 0; Ducksalad plant response rating (duck salad; [10]): 0; Ducksalad plant response rating (duck salad; [11]): 0; Barnyardgrass plant response rating (bamyardgrass; [8]): 0; Barnyardgrass plant response rating (bamyardgrass; [9]): 0; Barnyardgrass plant response rating (bamyardgrass; [10]): 0; Barnyardgrass plant response rating (bamyardgrass; [11]): 0

From patent US6737383B1, “Herbicidal oxadiazolidines” (priority 1999, dated 2004)
